From patent publication US20170128475A1, “COMPOSITIONS AND METHODS FOR PREVENTING AND TREATING ORGAN INJURY AND/OR DYSFUNCTION” (THE GENERAL HOSPITAL CORPORATION, priority 2010, published 2017)

Key:
[1] = tested on: Cx43 gap junctions; experiment: Dye-coupling parachute assay, HeLa Cx43 cells; assay type: cell-based; settings: 2APB 100 μM, 4 hours, normalized to no 2APB
Experimental: (§1) FIG. 2A-FIG. 2F presents data on small molecule inhibitors of Cx32 that selectively block hepatic gap junction communication and limit drug-induced hepatotoxicity. FIG. 2A and FIG. 2B depict a dye-coupling parachute assay was used to determine the specificity of 2APB for Cx32 gap junctions compared to Cx43 gap junctions. HeLa Cx32 or Cx43 cells were loaded with gap junction permeable calcein-AM (10 μM) and impermeable CM-DiI (10 μM), and seeded onto unlabeled recipient HeLa Cx32 or Cx43 cells, respectively, in the presence or absence of 2APB (100 μM). After 4 hours, the co-culture was analyzed by fluorescence microscopy (n>5), and gap junction communication was assessed by calculating the average number of calcein positive cells per CM-Dil positive cells, normalized to control conditions without 2APB treatment. FIG. 2C depicts a tissue version of the scrape and load test, developed to evaluate functional gap junction intercellular communication in liver tissue. Cx32+/+ and Cx32−/− mice were treated with saline, 2APB (20 mg/kg), or 2APB plus TAA (200 mg/kg) for 3 hours. […] Slices were washed, fixed, cryosectioned (7 μm), and analyzed by fluorescence microscopy (n>5) and custom automated image analysis software to produce iso-intensity contour maps outlining spread of Lucifer yellow and dextran-Texas red. […]

[2] = tested on: wild type mice; experiment: TAA-induced hepatotoxicity in wild type mice treated with 2APB; assay type: in vivo; settings: for total hepatic ROS levels: 2APB (20 mg/kg) coadministered with TAA (200 mg/kg), 4 hours, dihydroethidium staining
Experimental: FIG. 2A-FIG. 2F presents data on small molecule inhibitors of Cx32 that selectively block hepatic gap junction communication and limit drug-induced hepatotoxicity. FIG. 2A and FIG. 2B depict a dye-coupling parachute assay was used to determine the specificity of 2APB for Cx32 gap junctions compared to Cx43 gap junctions. HeLa Cx32 or Cx43 cells were loaded with gap junction permeable calcein-AM (10 μM) and impermeable CM-DiI (10 μM), and seeded onto unlabeled recipient HeLa Cx32 or Cx43 cells, respectively, in the presence or absence of 2APB (100 μM). After 4 hours, the co-culture was analyzed by fluorescence microscopy (n>5), and gap junction communication was assessed by calculating the average number of calcein positive cells per CM-Dil positive cells, normalized to control conditions without 2APB treatment. FIG. 2C depicts a tissue version of the scrape and load test, developed to evaluate functional gap junction intercellular communication in liver tissue. Cx32+/+ and Cx32−/− mice were treated with saline, 2APB (20 mg/kg), or 2APB plus TAA (200 mg/kg) for 3 hours. Livers were excised, cut into 2-3 mm slices, and a small area of each slice was mechanically damaged with the insertion of a 27 gauge needle coated with 0.5% Lucifer yellow (gap junction permeable) and 0.5% Texas red labeled dextran (gap junction impermeable). Slices were washed, fixed, cryosectioned (7 μm), and analyzed by fluorescence microscopy (n>5) and custom automated image analysis software to produce iso-intensity contour maps outlining spread of Lucifer yellow and dextran-Texas red. […] FIG. 2D: Serum alanine aminotransferase (ALT) levels; FIG. 2E: liver tissue MPO activity; and FIG. 2F: H&E liver sections (original magnification 10×; scale bar=400 μm) from wildtype mice pretreated with 2APB (20 mg/kg) or vehicle for 60 minutes, and then challenged with TAA (200 mg/kg) for 24 hours.
(§2) Serum ALT levels (FIG. 3A); liver tissue MPO activity (FIG. 3B); and H&E liver sections (FIG. 3C) (original magnification 10×; scale bar=400 μm) from wildtype mice after treatment with 2APB alone (20 mg/kg), TAA (200 mg/kg) plus vehicle, TAA (200 mg/kg) plus 2APB (1 or 20 mg/kg), APAP (500 mg/kg) plus vehicle, or APAP (500 mg/kg) plus 2APB (20 mg/kg). Livers and sera were collected 24 hours after TAA challenge, or 16 hours after APAP challenge. FIG. 3D reflects Q-PCR for TNF-α, […], IL-6, and CCL5 from whole livers of mice treated with TAA and 2APB as described above. FIG. 3E is a Kaplan-Meier survival curve for wildtype mice over 30 days after a single lethal dose of TAA (500 mg/kg) plus vehicle, or TAA (500 mg/kg) plus 2APB (20 mg/kg) (n=10). Serum ALT levels (FIG. 3F) and H&E liver sections (FIG. 3G) (original magnification 10×; scale bar=400 μm) from wildtype mice after TAA (200 mg/kg) or APAP (500 mg/kg), with or without a rescue injection of 2APB (20 mg/kg) at 1.5, 3 or 6 hours after hepatotoxin challenge. Livers and sera were collected 24 hours after TAA challenge, or 16 hours after APAP challenge.
Liver cryosections from Cx32+/+ mice treated with vehicle, TAA (200 mg/kg) plus vehicle, or TAA (200 mg/kg) plus 2APB (20 mg/kg) for 4 hours were stained with dihydroethidium, a cell permeable free radical probe that binds nucleic DNA and becomes fluorescent when […], and analyzed by fluorescence microscopy for ROS activity (n>5).
TAA (Sigma Aldrich, St. Louis, Mo.) solution was made fresh for each experiment in 0.9% saline at 20 mg/ml. TAA was dosed at 200, 500 or 1000 mg/kg, depending on the experiment, and injected intraperitoneally. Control mice received the appropriate volume of 0.9% saline. Animals were euthanized by ketamine/xylazine injection at 24 hr for collection of serum and liver tissue for qPCR, GSH/GST assay, MPO activity assay, and histology. For survival experiments, animals were observed every 24 hr for 30 days.
2APB (Sigma Aldrich) was made fresh for each experiment in DMSO as a vehicle at 200 mg/ml. […]

[3] = biological target: Cx32 gap junctions (Homo sapiens, UniProt P08034); settings: shown previously, Tao & Harris, 71 Mol. Pharmacol. 57 (2007); cited from earlier work
[4] = tested on: Cx32 gap junctions; experiment: Dye-coupling parachute assay, HeLa Cx32 cells; assay type: cell-based; settings: 2APB 100 μM, 4 hours, normalized to no 2APB
Experimental: as §1

[5] = tested on: wild type mice; experiment: APAP-induced hepatotoxicity in wild type mice treated with 2APB; assay type: in vivo
Experimental: as §2
APAP (Sigma Aldrich) solution was made fresh for each experiment in 0.9% saline at 20 mg/ml and heated until dissolved. APAP was dosed at 500 or 750 mg/kg, and injected intraperitoneally after 15 hr of starvation. Animals were euthanized by ketamine/xylazine injection at 16 hr for collection of serum, and liver tissue for MPO activity assay and histology.
2APB (Sigma Aldrich) was made fresh for each experiment in DMSO as a vehicle at 200 mg/ml. 2APB was dosed at 1 or 20 mg/kg, and was administered before (90 min), with, or after (1.5, 3 or 6 hr) the appropriate dose of TAA or APAP. Vehicle control mice received the appropriate volume of DMSO. Fresh anhydrous DMSO (Sigma Aldrich) was used for each experiment. DMSO was dosed at 0.1 or 1 ml/kg, and coadministered concurrently with 200 mg/kg TAA or saline.
Mouse liver tissues were homogenized in MPO buffer (0.5% hexadecyl trimethyl ammonium bromide, 10 mM EDTA, 50 mM Na2HPO4, pH 5.4) using a Polytron homogenizer. Liver homogenates were then subject to three freeze-thaw cycles and cleared by centrifugation. MPO reaction was carried out using the Invitrogen EnzChek Myeloperoxidase Activity Assay Kit (Invitrogen, Carlsbad, Calif.), according to the manufacturer's protocol.

[6] = tested on: hepatic gap junction communication; experiment: Tissue scrape and load assay on explanted liver slices; assay type: in vivo, mice; settings: 2APB 20 mg/kg i.p.; livers excised after 3 hours
Experimental: as §1, with “treatment.” for “treatment. FIG. 2C depicts a tissue version of the scrape and load test, developed to evaluate functional gap junction intercellular communication in liver tissue. Cx32+/+ and Cx32−/− mice were treated with saline, 2APB (20 mg/kg), or 2APB plus TAA (200 mg/kg) for 3 hours.”
Fluorescence images were captured on a Zeiss 200 Axiovert microscope at a fixed exposure and gain. Images for the tissue scrape load assay were quantified using custom image analysis routines written in MATLAB13. […] Regional outlines were plotted as contour maps by displaying iso-intensity lines at the determined threshold level.

[7] = tested on: Cx32+/+ and Cx32−/− mice; experiment: TAA-induced mortality in Cx32+/+ and Cx32−/− mice; assay type: in vivo; settings: single lethal dose 500 mg/kg TAA, 30 days
Experimental: FIG. 1C is a series of micrographs showing less liver hemorrhaging, necrosis and acute inflammation in Cx32−/− mice compared to Cx32+/+ mice 24 hours after TAA treatment (H&E staining; original magnification 10×; scale bar=400 μm). FIG. 1D presents bar graphs depicting increase in total liver TNF-α, pro-IL-1α, IL-6, and CCL5 transcripts, as measured by Q-PCR, in Cx32+/+ mice 12 hours after TAA, compared to Cx32−/− mice. FIG. 1E is a bar graph of liver tissue myeloperoxidase activity (MPO) in Cx32+/+ and Cx32−/− mice 24 hours after treatment with TAA. FIG. 1F is a Kaplan-Meier survival curve for Cx32+/+ and Cx32−/− mice over 30 days after a single lethal dose of 500 mg/kg TAA (Cx32+/+ and Cx32−/−: n=12).
C57BL/6 mice were purchased from Jackson Laboratory. Cx32−/− mice were a generous gift from K. Willecke (University of Bonn) and D. Paul (Harvard University). All animal protocols were approved by Massachusetts General Hospital Subcommittee on Research Animal Care. For survival experiments, animals were euthanized when they became moribund according to the criteria of lack of response to stimuli or lack of righting reflex.
TAA (Sigma Aldrich, St. Louis, Mo.) solution was made fresh for each experiment in 0.9% saline at 20 mg/ml. TAA was dosed at 200, 500 or 1000 mg/kg, depending on the experiment, and injected intraperitoneally. Control mice received the appropriate volume of 0.9% saline. […]

[8] = 2APB coadministered with TAA (200 mg/kg), 24 hours
[9] = rescue injection of 2APB (20 mg/kg) 6 hours after TAA (200 mg/kg)
[10] = single dose 2APB (20 mg/kg) 60 minutes prior to TAA (200 mg/kg), 24 hours, compared to vehicle
[11] = 2APB (20 mg/kg) coadministered with APAP (500 mg/kg), 16 hours
[12] = rescue injection of 2APB (20 mg/kg) 6 hours after APAP (500 mg/kg)

Cx32 gap junctions (Homo sapiens, UniProt P08034), sequence (P08034 whole entry): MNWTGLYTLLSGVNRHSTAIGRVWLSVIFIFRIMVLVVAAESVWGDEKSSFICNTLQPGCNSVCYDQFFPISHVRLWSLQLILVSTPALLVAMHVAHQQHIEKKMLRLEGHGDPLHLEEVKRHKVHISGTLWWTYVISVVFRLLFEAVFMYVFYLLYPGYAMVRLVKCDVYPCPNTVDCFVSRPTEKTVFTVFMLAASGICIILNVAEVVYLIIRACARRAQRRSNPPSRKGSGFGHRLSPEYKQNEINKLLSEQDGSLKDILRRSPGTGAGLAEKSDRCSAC

## NCCOB(c1ccccc1)c1ccccc1 [2APB, 2-aminoethyoxydiphenyl-borate]
[1]
  effect on Cx43 gap junctions (spread of calcein): minimal effect
[2]
  total hepatic ROS levels: dramatically reduced
[2]; listed as 2-APB
  total hepatic ROS levels: abrogated
[2]; 2APB (1 or 20 mg/kg) coadministered with TAA (200 mg/kg), 24 hours, compared with TAA alone
  serum ALT: dramatically reduced
[2]; [8]
  histological evidence of hepatic necrosis and hemorrhaging: dramatically reduced
  neutrophil infiltration (liver tissue MPO activity): dramatically reduced
[2]; 2APB coadministered with TAA (200 mg/kg), Q-PCR of whole livers
  liver inflammation: dramatically reduced
[2]; rescue injection of 2APB (20 mg/kg) 1.5 hours after TAA (200 mg/kg)
  hepatotoxicity: nearly complete absence
[2]; [9]
  hepatocellular damage and necrosis: limited
  serum ALT levels: reduced
[2]; [10]
  histological evidence of parenchymal damage: dramatically reduced
  neutrophil infiltration (liver tissue MPO activity): limited
  serum ALT: significantly reduced
[2]; single lethal dose TAA (500 mg/kg) plus 2APB (20 mg/kg), 30 days
  survival: 100%
[3]
  inhibition of Cx32 gap junctions in vitro: transiently inhibit
[4]
  spread of calcein via Cx32 gap junctions: blocked
[5]; [11]
  histological evidence of hepatic necrosis and hemorrhaging: dramatically reduced
  neutrophil infiltration (liver tissue MPO activity): dramatically reduced
[5]; 2APB (20 mg/kg) coadministered with APAP (500 mg/kg), 16 hours, compared with APAP alone
  serum ALT: dramatically reduced
[5]; 2APB coadministered with APAP
  liver inflammation: dramatically reduced
  total hepatic ROS levels: dramatically reduced
[5]; rescue injection of 2APB (20 mg/kg) 1.5 hours after APAP (500 mg/kg)
  hepatotoxicity: nearly complete absence
[5]; [12]
  hepatocellular damage and necrosis: limited
  serum ALT levels: reduced
[6]
  hepatic gap junction communication in vivo (spread of Lucifer yellow): effectively blocks

## CC(=N)S [TAA, thioacetamide]
[7]; Cx32+/+ mice
  mortality: 100%
[7]; Cx32−/− mice
  survival: 100%
